Data as given in patent publication US10023557B2 (LifeSci Pharmaceuticals, Inc., priority 2015, dated 2018).

molecular target: human plasma kallikrein (Homo sapiens (Human), UniProt P03952); assay: In vitro enzyme inhibition of human plasma kallikrein (PFR-AMC cleavage); assay type: biochemical; conditions: Pro-Phe-Arg-AMC substrate, 37° C., read-out: hPK IC50
Method: The ability of the compounds disclosed herein to inhibit human plasma kallikrein activity was quantified according to the procedures below.
A 10 mM solution of the test compound was made in DMSO. […] A control tube containing only DMSO is included. 16 μL of each compound test solution was combined with 384 μL of assay buffer (50 mM Tris-HCl pH 7.5, 150 mM NaCl, 0.01% Triton X-100) to yield a “4× test compound buffer stock”.
These solutions are hereby referred to as 4× hPK and 2×PFR-AMC, respectively.
50 μL was removed from this mixture and placed into duplicate wells on a Microfluor 1Black U-bottom microtiter plate (Thermo Scientific). This plate was incubated for 5 minutes at 37° C. To each well, 50 μL of pre-warmed 2×PFR-AMC was added to start the enzymatic reaction. Cleavage of PFR-AMC was monitored in a Biotek Synergy H4 reader set at 37° C. Readings are taken every 43 seconds for 1 hour. […] The IC50 is calculated using the Gen5 (Biotek Instruments).
The ability of the compounds in Table 3 to inhibit human plasma kallikrein activity was determined.

Sequence of human plasma kallikrein (P03952 391-638): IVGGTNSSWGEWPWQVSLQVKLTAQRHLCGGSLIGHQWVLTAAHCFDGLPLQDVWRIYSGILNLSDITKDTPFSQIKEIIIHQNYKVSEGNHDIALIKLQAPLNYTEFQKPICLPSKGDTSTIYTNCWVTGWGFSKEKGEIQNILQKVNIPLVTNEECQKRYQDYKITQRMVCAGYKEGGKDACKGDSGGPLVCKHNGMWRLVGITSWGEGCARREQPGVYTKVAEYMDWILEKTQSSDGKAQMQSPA
Sequence of human plasma kallikrein (P03952 20-390 partner): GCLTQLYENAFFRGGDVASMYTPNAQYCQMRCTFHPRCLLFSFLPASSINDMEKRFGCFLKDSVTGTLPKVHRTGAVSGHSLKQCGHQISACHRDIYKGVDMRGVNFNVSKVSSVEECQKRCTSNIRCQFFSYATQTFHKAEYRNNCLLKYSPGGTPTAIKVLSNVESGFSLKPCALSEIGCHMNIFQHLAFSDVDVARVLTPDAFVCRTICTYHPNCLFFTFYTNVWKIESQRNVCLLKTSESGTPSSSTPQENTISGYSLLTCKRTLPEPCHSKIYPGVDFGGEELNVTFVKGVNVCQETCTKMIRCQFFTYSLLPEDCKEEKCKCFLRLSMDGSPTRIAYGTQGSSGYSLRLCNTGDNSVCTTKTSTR

Q: With CCc1cnc2ccc(Cc3cc(C(=O)NCc4n[nH]c5ccc(Cl)cc45)ccn3)cc2c1 [Example 284, N-((5-chloro-1H-indazol-3-yl)methyl)-2-((3-ethylquinolin-6-yl)methyl)isonicotinamide] as the compound, how does the IC50 read?
A: Its IC50 is less than 100 nM.

Q: With Cc1cc(N)nc(C)c1CNC(=O)c1ccnc(Cc2cc3cc(Cl)ccc3[nH]2)c1 [Example 147, N-((6-amino-2,4-dimethylpyridin-3-yl)methyl)-2-((5-chloro-1H-indol-2-yl)methyl)isonicotinamide] as the compound, how does the IC50 read?
A: The IC50 was less than 100 nM.

Q: With O=C(NCc1cnc2[nH]nc(C(F)(F)F)c2c1)c1ccnc(Cc2ccc3ncc(Cl)cc3c2)c1 [Example 271, 2-((3-chloroquinolin-6-yl)methyl)-N-((3-(trifluoromethyl)-1H-pyrazolo[3,4-b]pyridin-5-yl)methyl)isonicotinamide] as the compound, how does the IC50 read?
A: Its IC50 is 100 to 1000 nM.

Q: With Nc1cnc2ccc(Cc3cc(C(=O)NCc4cc5c(Cl)c[nH]c5cc4F)ccn3)cc2c1 [Example 297, 2-((3-aminoquinolin-6-yl)methyl)-N-((3-chloro-6-fluoro-1H-indol-5-yl)methyl)isonicotinamide] as the compound, how does the IC50 read?
A: Its IC50 is 100 to 1000 nM.

Q: Cc1nc(N)ccc1CNC(=O)c1ccnc(Cc2ccc3ncc(CO)cc3c2)c1 [Example 258, N-((6-amino-2-methylpyridin-3-yl)methyl)-2-((3-(hydroxymethyl)quinolin-6-yl)methyl)isonicotinamide] was tested. Which IC50 did it give?
A: The IC50 was 100 to 1000 nM.

Q: How did the IC50 turn out when O=C(NCc1cnc2ccc(Cl)cn12)c1ccnc(Cc2ccc3ncc(Cl)cc3c2)c1 [Example 157, N-((6-chloroimidazo[1,2-a]pyridin-3-yl)methyl)-2-((3-chloroquinolin-6-yl)methyl)isonicotinamide] was run?
A: The IC50 was greater than 10000 nM.

Q: With Cc1c(CNC(=O)c2ccnc(Cc3ccc4ncc(Cl)cc4c3)c2)cnc2[nH]cc(Cl)c12 [Example 189, N-((3-chloro-4-methyl-1H-pyrrolo[2,3-b]pyridin-5-yl)methyl)-2-((3-chloroquinolin-6-yl)methyl)isonicotinamide] as the compound, how does the IC50 read?
A: Its IC50 is 100 to 1000 nM.

Q: For Cc1ccn2c(C)nc(CNC(=O)c3ccnc(Cc4ccc5ncc(C(F)(F)F)cc5c4)c3)c2c1 [Example 159, N-((3,7-dimethylimidazo[1,5-a]pyridin-1-yl)methyl)-2-((3-(trifluoromethyl)quinolin-6-yl)methyl)isonicotinamide], which IC50 is on record?
A: Its IC50 is 100 to 1000 nM.

Q: With Cc1nc(N)ccc1C(C)NC(=O)c1ccnc(Cc2ccc3ncc(Cl)cc3c2)c1 (centres unmarked) [Example 237, N-(1-(6-amino-2-methylpyridin-3-yl)ethyl)-2-((3-chloroquinolin-6-yl)methyl)isonicotinamide] as the compound, how does the IC50 read?
A: Its IC50 is 1000 to 10000 nM.

Q: With O=C(NCc1cc2c(Cl)c[nH]c2cc1F)c1ccnc(Cc2ccc3ncc(N4CCOCC4)cc3c2)c1 [Example 292, N-((3-chloro-6-fluoro-1H-indol-5-yl)methyl)-2-((3-morpholinoquinolin-6-yl)methyl)isonicotinamide] as the compound, how does the IC50 read?
A: The IC50 was 1000 to 10000 nM.

Q: O=C(NCc1cnc2[nH]cc(Cl)c2c1)c1ccnc(Cc2ccc3ncc(N4CCOCC4)cc3c2)c1 [Example 294, N-((3-chloro-1H-pyrrolo[2,3-b]pyridin-5-yl)methyl)-2-((3-morpholinoquinolin-6-yl)methyl)isonicotinamide] was tested. Which IC50 did it give?
A: Its IC50 is 1000 to 10000 nM.

Q: Which IC50 does the source give for Cc1nc2[nH]cc(Cl)c2c(C)c1CNC(=O)c1ccnc(Cc2ccc3ncc(Cl)cc3c2)c1 [Example 192, N-((3-chloro-4,6-dimethyl-1H-pyrrolo[2,3-b]pyridin-5-yl)methyl)-2-((3-chloroquinolin-6-yl)methyl)isonicotinamide] here?
A: The IC50 was 100 to 1000 nM.

Q: How did the IC50 turn out when Nc1cnc2ccc(Cc3cc(C(=O)NCc4ccc5[nH]cc(Cl)c5c4F)ccn3)cc2c1 [Example 301, 2-((3-aminoquinolin-6-yl)methyl)-N-((3-chloro-4-fluoro-1H-indol-5-yl)methyl)isonicotinamide] was run?
A: Its IC50 is 100 to 1000 nM.

Q: How did the IC50 turn out when Cc1cc2cncn2cc1CNC(=O)c1ccnc(Cc2ccc3ncc(Cl)cc3c2)c1 [Example 188, 2-((3-chloroquinolin-6-yl)methyl)-N-((7-methylimidazo[1,5-a]pyridin-6-yl)methyl)isonicotinamide] was run?
A: Its IC50 is greater than 10000 nM.
